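Interpolation was linear, between the two tested concentrations surrounding the appropriate level; five concentrations were tested over 48 hours in 96-well plates. At the GI50, growth is halved. TGI: total growth inhibition.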

Some test systems named below: MDA-MB-231 breast; K-562 leukemia; 786-0 renal; MDA-MB-435; SK-OV-3 ovarian; TK-10 renal; NCI-H226 lung; HCT-116 colon; MCF7 breast; SNB-75 CNS.
Assay in all cases: NCI tumour cell line growth inhibition, 48 h

Turning to `C#CCOc1cccc(Nc2ncnc3c(NC(=O)CCl)cccc23)c1`, the GI50 in the assay with MDA-MB-231 breast was 22.9 µM; in the assay on K-562 leukemia, 17.5 µM; with 786-0 renal, 18.7 µM; in the assay on MDA-MB-435 it was 26.2 µM; with SK-OV-3 ovarian, 51.2 µM; with TK-10 renal it was 40.1 µM. Besides, the GI50 with NCI-H226 lung is 33.4 µM; in the assay with HCT-116 colon, 18.1 µM; in the assay on MCF7 breast it was 14.5 µM. In addition, the TGI is 61 µM in the assay with MDA-MB-231 breast; 71.7 µM in the assay with K-562 leukemia; 37.9 µM in the assay with 786-0 renal; above 100 µM in the assay with MDA-MB-435; above 100 µM in the assay on SK-OV-3 ovarian; above 100 µM with TK-10 renal. The TGI with NCI-H226 lung is above 100 µM; in the assay on HCT-116 colon, 42.1 µM; with MCF7 breast, 48.3 µM.
As for `Cc1cc(N(CCC#N)CCC#N)ccc1/C=C1N=C(/C=C\c2ccccc2)N(c2ccc(Cl)cc2)C\1=O`, the TGI in the assay with MDA-MB-231 breast, in the assay on K-562 leukemia, with SNB-75 CNS, with 786-0 renal, in the assay on SK-OV-3 ovarian and with TK-10 renal was above 100 µM throughout. Besides, the TGI in the assay with NCI-H226 lung, with HCT-116 colon and with MCF7 breast was above 100 µM in each case.
Consider `CC(C)c1c2[nH]c3ccccc3c2c(C(C)C)c2[nH]c3ccccc3c12`, for which the TGI in the assay on K-562 leukemia was above 100 µM; with SNB-75 CNS, above 100 µM; in the assay with 786-0 renal, above 100 µM; in the assay on SK-OV-3 ovarian it was above 100 µM; in the assay on TK-10 renal, above 100 µM; in the assay with NCI-H226 lung it was above 82.8 µM. Also, the TGI in the assay on HCT-116 colon is above 100 µM.
For the molecule `CC1(C)CCC[C@]2(C)[C@@H](C=O)C(C=O)=CC[C@@H]12`, the TGI with MDA-MB-231 breast was 23.1 µM; in the assay with 786-0 renal, above 100 µM; in the assay with MDA-MB-435, above 100 µM; with SK-OV-3 ovarian it was above 100 µM; in the assay on TK-10 renal it was 74 µM; with NCI-H226 lung it was 56.1 µM. Also, the results for the TGI in the assay with HCT-116 colon and in the assay with MCF7 breast were 83.4 µM and 31 µM, respectively.
Turning to `COC(CN1C=C(Sc2ccccc2)CC1)OC`, the TGI in the assay on K-562 leukemia is 53.7 µM; with SNB-75 CNS it was 52.7 µM; in the assay with 786-0 renal, above 100 µM; in the assay on SK-OV-3 ovarian, 93 µM; in the assay on TK-10 renal it was above 100 µM; in the assay with NCI-H226 lung it was above 100 µM. Further, the TGI in the assay with HCT-116 colon is above 100 µM.
For `O=C([CH-]C(=O)c1ccccc1)c1ccccc1.O=C([CH-]C(=O)c1ccccc1)c1ccccc1.[OH-].[OH-].[Ti+4]`, the GI50 in the assay with K-562 leukemia was 63.3 µM; in the assay on SNB-75 CNS it was 49.1 µM; with 786-0 renal it was 47.1 µM; with SK-OV-3 ovarian, 75.6 µM; in the assay on TK-10 renal, above 100 µM; in the assay with NCI-H226 lung it was 58 µM. Further, in the assay with HCT-116 colon, the GI50 was 84.3 µM. In addition, the TGI in the assay on K-562 leukemia, in the assay on SNB-75 CNS, in the assay with 786-0 renal, with SK-OV-3 ovarian, in the assay with TK-10 renal and with NCI-H226 lung was above 100 µM throughout. In the assay with HCT-116 colon, this molecule returned a TGI above 100 µM.
In the case of `CN1CCN(Cc2ccc(NC(=O)c3[nH]ncc3Nc3ncnc4sc5c(c34)CCCC5)cc2)CC1`, the GI50 with MDA-MB-231 breast was 0.333 µM; in the assay on K-562 leukemia, 0.198 µM; in the assay with SNB-75 CNS, 0.104 µM; with 786-0 renal, 0.365 µM; in the assay on MDA-MB-435 it was 0.291 µM; in the assay on SK-OV-3 ovarian it was 0.198 µM. Moreover, the GI50 with TK-10 renal is 1.14 µM. For the same molecule, the TGI in the assay on MDA-MB-231 breast amounted to 1.45 µM; in the assay on K-562 leukemia, 1.14 µM; in the assay on SNB-75 CNS, 1.44 µM; in the assay with 786-0 renal, 1.9 µM; with MDA-MB-435, 1.71 µM; in the assay on SK-OV-3 ovarian, 3.01 µM. The TGI in the assay with TK-10 renal was found to be 2.4 µM.
With `CN1CCN(CC(O)COc2c(Br)c(Br)c(Br)c3c2OC(C)(C)C3)CC1` (stereo not drawn), the GI50 in the assay on MDA-MB-231 breast is 2.56 µM; in the assay on K-562 leukemia, 2.06 µM; with SNB-75 CNS it was 7.79 µM; in the assay on 786-0 renal, 3.08 µM; in the assay on SK-OV-3 ovarian, 18.4 µM; in the assay on TK-10 renal, 15 µM. The GI50 with NCI-H226 lung was 24.2 µM; in the assay with HCT-116 colon it was 5.16 µM; in the assay with MCF7 breast, 3.33 µM. The TGI with MDA-MB-231 breast was 6.8 µM; in the assay with K-562 leukemia, above 100 µM; in the assay on SNB-75 CNS it was 27 µM; with 786-0 renal it was 14.6 µM; with SK-OV-3 ovarian it was 38.4 µM; in the assay on TK-10 renal, 37.7 µM. Besides, the TGI is 61.4 µM in the assay on NCI-H226 lung, above 100 µM in the assay on HCT-116 colon and 14.5 µM with MCF7 breast.
With `C[C@@H]1O[C@@H](OC[C@H]2O[C@@H](OCCc3ccc(O)c(O)c3)[C@H](O)[C@@H](O)[C@@H]2OC(=O)/C=C/c2ccc(O)c(O)c2)[C@H](O)[C@H](O)[C@H]1O`, the GI50 in the assay with MDA-MB-231 breast, in the assay on K-562 leukemia, in the assay with SNB-75 CNS, in the assay on 786-0 renal, in the assay on MDA-MB-435 and in the assay with SK-OV-3 ovarian was above 100 µM in each case. Moreover, the figures for the GI50 with TK-10 renal, in the assay on NCI-H226 lung and with HCT-116 colon were above 100 µM, above 100 µM and 50.5 µM, respectively. Moreover, the TGI in the assay with MDA-MB-231 breast, in the assay with K-562 leukemia, with SNB-75 CNS, in the assay on 786-0 renal, in the assay on MDA-MB-435 and in the assay on SK-OV-3 ovarian was above 100 µM throughout. In addition, the TGI with TK-10 renal, with NCI-H226 lung and in the assay on HCT-116 colon was above 100 µM each time.
Turning to `Fc1cccc(C2SCc3nc4ccccc4n32)c1F` (stereo not drawn), the TGI with K-562 leukemia, in the assay on SNB-75 CNS, in the assay on 786-0 renal, in the assay on SK-OV-3 ovarian, in the assay with TK-10 renal and in the assay on NCI-H226 lung was above 100 µM in each case. In addition, in the assay with HCT-116 colon, the TGI was above 100 µM.
On to `Cc1nc2ccccc2c(/C=C/c2ccc(Br)cc2)c1C(=O)/C=C/c1ccccc1`, for which the GI50 in the assay with MDA-MB-231 breast is 1.84 µM; with SNB-75 CNS, 1.73 µM; with 786-0 renal it was 1.64 µM; in the assay with MDA-MB-435, 1.94 µM; in the assay on SK-OV-3 ovarian, 1.88 µM; with TK-10 renal, 2.15 µM. Further, the GI50 in the assay on NCI-H226 lung is 1.67 µM; in the assay on HCT-116 colon, 0.601 µM; with MCF7 breast, 0.895 µM. Besides, the TGI in the assay on MDA-MB-231 breast is 3.94 µM; with SNB-75 CNS, 5.44 µM; with 786-0 renal it was 3.18 µM; in the assay with MDA-MB-435, 4.69 µM; with SK-OV-3 ovarian it was 4.15 µM; in the assay on TK-10 renal it was 3.87 µM. The TGI with NCI-H226 lung turned out to be 3.35 µM; with HCT-116 colon, 2.28 µM; in the assay with MCF7 breast, 2.72 µM.

(Values after PubChem BioAssay (NCI).)
